Here are results for three compounds from publication PMC5618426, “APETx4, a Novel Sea Anemone Toxin and a Modulator of the Cancer-Relevant Potassium Channel KV10.1” (Marine Drugs, 2017).

In one data set the test system is hERG. Particulars: cited from earlier work.
In another data set the test system is KV10.1. The data set can be described thus: KV10.1 inhibition by related toxins (unpublished data). Format: cell-based.
For a further data set, the system named is ASIC3. Particulars: cited from earlier work.
A further data set relates to KV2.1. Particulars: ref [46]; cited from earlier work. From the text: APETx1 is proposed to bind to the voltage sensor paddle of hERG. In particular, the negative charge of E518 is expected to form an electrostatic interaction with the toxin [44]. Several other kinds of gating modifier toxins also bind to the extracellular exposed part of the S3–S4 domain. More precisely by binding to a glutamic acid residue and several hydrophobic amino acid residues. An example of these toxins is Hanatoxin (HaTx1) from the tarantula Grammostola spatulata.

Turning to `COc1ccc(CCN2CCC(Nc3nc4ccccc4n3Cc3ccc(F)cc3)CC2)cc1` [astemizole], the “block of hERG (KV11.1)” value with hERG is on record as “block the cardiac human Eag-related gene (hERG, KV11.1)”.

Consider APETx2, for which the “effect on KV10.1” value with KV10.1 is recorded as “no effect on KV10.1”. The results for the IC50 with ASIC3 and with hERG were roughly 63 nM and roughly 1200 nM, respectively.

With “HaTx1: toxin from the tarantula Grammostola spatulata (ECRYLFGGCKTTSDCCKHLGCKFRDKYCAWDFTFS; UniProt P56852 50-84, looked up)”, the “gating modification of KV2.1” value in the data set on KV2.1 is given as “modifies the channel gating of KV2.1”.
